In the NIST ThermoML archive (doi:10.1016/j.jct.2015.07.034):
± gives the expanded uncertainty stated by the source.

Conditions: for Normal melting temperature: DTA

CC[n+]1ccccc1.O=S(=O)([N-]S(=O)(=O)C(F)(F)F)C(F)(F)F [1-ethylpyridinium bis[(trifluoromethyl)sulfonyl]imide]
Normal melting temperature (Crystal 1): 32.00 ± 2 °C
Triple point temperature (Crystal 2, DSC): 294.15 ± 2 K

CC[n+]1ccccc1.CS(=O)(=O)[O-] [1-ethylpyridinium methanesulfonate]
Normal melting temperature (Crystal): 62.00 ± 2 °C

CCn1cc[n+](C)c1.O=S(=O)([N-]S(=O)(=O)C(F)(F)C(F)(F)F)C(F)(F)C(F)(F)F
Normal melting temperature (Crystal): 16.00 ± 2 °C
Glass transition temperature (Glass, DSC): -52.00 ± 2 °C

C[N+](C)(C)CCO.O=S(=O)([N-]S(=O)(=O)C(F)(F)F)C(F)(F)F [choline bis(trifluoromethylsulfonyl)imide]
Normal melting temperature (Crystal 1): 33.00 ± 2 °C
Triple point temperature (Crystal 2, DSC): 275.15 ± 2 K
Triple point temperature (Metastable crystal, DSC): 300.15 ± 2 K

CC[n+]1ccccc1.O=S(=O)([O-])C(F)(F)F [1-ethylpyridinium triflate]
Normal melting temperature (Crystal 1): 32.00 ± 2 °C
Triple point temperature (Crystal 2, DSC): 266.15 ± 2 K

CCn1cc[n+](C)c1.O=S(=O)([O-])C(F)(F)F [1-ethyl-3-methylimidazolium trifluoromethanesulfonate]
Normal melting temperature (Crystal): -14.00 ± 2 °C
